Values of other authors in US11141509B2, “Method for loading at least two powder substances into recesses provided at a stent surface” (CID S.p.A., priority 2016, dated 2021).

Conditions: Cre8 coronary stent, Amphilimus formulation; Eurointervention 2012; 7:1087-1094

CO[C@H]1C[C@@H]2CC[C@@H](C)[C@@](O)(O2)C(=O)C(=O)N2CCCC[C@H]2C(=O)O[C@H]([C@H](C)C[C@@H]2CC[C@@H](O)[C@H](OC)C2)CC(=O)[C@H](C)/C=C(\C)[C@@H](O)[C@@H](OC)C(=O)[C@H](C)C[C@H](C)/C=C/C=C/C=C/1C [Sirolimus]
in vivo release after coronary implantation: greater than 30 days
